What was measured:
Set-up in all cases: species or system Mice
[1] = target: T1, brain serotonin 5-HT2 receptor (Mus musculus, UniProt P35363); experiment: binding affinity for brain serotonin 5-HT2 receptor
T1 construct: from tissue; host or cells: brain (rodent)
Source text: (§1) An assessment of dopamine antagonism was made in rodent models. The methods and procedures used can be found in J. Med. Chem., 44 (3), 372-389, 2001 and are incorporated herein by reference. […] It is this combination of serotonin and dopamine receptor antagonism, with higher relative 5-HT2 to D2 receptor affinity that indicates the compound of Formula I as a potent atypical antipsychotic. J. Goldstein, Quetiapine Fumarate (Seroquel): a new atypical antipsychotic, 35(3) Drugs of Today 193-210 (1999). […] Low potency at the D2 receptor is considered advantageous since it a characteristic shared with Clozapine.

dopamine D1 receptor = target: T2, dopamine D1 receptor (Mus musculus, UniProt Q61616); experiment: binding affinity for dopamine D1 receptor; conditions: tested as the dihydrochloride salt; read-out: binding affinity for dopamine D1 receptor (K1)
T2 construct: from tissue
T2 sequence (Q61616 whole entry): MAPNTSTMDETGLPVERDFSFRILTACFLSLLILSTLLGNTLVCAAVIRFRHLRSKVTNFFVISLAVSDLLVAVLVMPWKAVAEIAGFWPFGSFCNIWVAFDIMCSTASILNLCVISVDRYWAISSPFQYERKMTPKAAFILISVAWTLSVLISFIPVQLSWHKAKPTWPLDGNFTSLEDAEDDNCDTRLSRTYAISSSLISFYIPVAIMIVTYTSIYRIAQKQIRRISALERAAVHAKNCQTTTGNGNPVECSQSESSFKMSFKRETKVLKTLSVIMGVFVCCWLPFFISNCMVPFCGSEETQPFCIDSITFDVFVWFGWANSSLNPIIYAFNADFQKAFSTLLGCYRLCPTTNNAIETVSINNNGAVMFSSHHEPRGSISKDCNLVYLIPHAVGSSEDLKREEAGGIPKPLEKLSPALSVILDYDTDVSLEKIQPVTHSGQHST
Source text: as §1

dopamine D2 receptor = target: T3, dopamine D2 receptor (Mus musculus, UniProt P61168); experiment: binding affinity for dopamine D2 receptor
T3 construct: serotonin (5-HT2) receptors relative to dopamine (D2) receptors in the brain; from tissue; host or cells: brain (rodent)
T3 sequence (P61168 whole entry): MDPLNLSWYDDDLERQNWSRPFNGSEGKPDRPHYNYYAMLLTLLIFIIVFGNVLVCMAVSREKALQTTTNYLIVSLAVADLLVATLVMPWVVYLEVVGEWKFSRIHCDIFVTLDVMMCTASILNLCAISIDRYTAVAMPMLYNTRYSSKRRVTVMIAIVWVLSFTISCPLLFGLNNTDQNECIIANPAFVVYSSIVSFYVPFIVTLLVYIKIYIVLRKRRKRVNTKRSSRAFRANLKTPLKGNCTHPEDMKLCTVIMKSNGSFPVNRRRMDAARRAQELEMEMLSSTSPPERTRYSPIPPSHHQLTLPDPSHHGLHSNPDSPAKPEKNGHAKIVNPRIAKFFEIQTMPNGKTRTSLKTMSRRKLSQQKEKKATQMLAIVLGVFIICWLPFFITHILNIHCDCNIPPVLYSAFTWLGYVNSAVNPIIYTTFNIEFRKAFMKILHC
Source text: as §1

T1 sequence (P35363 whole entry): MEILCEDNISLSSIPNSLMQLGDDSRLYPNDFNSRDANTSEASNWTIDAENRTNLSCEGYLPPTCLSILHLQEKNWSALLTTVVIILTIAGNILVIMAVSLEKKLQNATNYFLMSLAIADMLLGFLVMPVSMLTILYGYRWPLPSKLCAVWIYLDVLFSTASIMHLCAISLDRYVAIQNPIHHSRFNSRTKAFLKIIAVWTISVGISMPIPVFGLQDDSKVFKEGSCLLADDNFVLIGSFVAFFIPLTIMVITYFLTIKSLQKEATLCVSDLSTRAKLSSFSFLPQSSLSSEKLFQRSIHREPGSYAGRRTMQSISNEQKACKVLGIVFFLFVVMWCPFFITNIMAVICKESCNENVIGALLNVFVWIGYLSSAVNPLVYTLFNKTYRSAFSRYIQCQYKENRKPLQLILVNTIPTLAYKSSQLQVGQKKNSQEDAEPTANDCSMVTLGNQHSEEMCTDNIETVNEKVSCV

affinity for serotonin (5-HT2) receptors relative to dopamine (D2) receptors in the brain ([1]; as the dihydrochloride salt, 5-HT2 versus D2): higher affinity | Ki ([1]; tested as the dihydrochloride salt, brain receptor, read-out: binding affinity for brain serotonin 5-HT2 receptor (K1)): 6.5 nM | Ki (dopamine D1 receptor): 288 nM | affinity for D2 (in words) (dopamine D2 receptor): moderate affinity | Ki (dopamine D2 receptor; tested as the dihydrochloride salt, read-out: binding affinity for dopamine D2 receptor (K1)): 35 nM
Compound: Oc1ccc2c(c1)Sc1ccccc1C(N1CCNCC1)=N2 [Formula I, 11-piperazin-1-yldibenzo[b,f][1,4]thiazepin-7-ol]
